Experimental findings from patent US11566022B2, “3-(5-methoxy-1-oxoisoindolin-2-yl)piperidine-2,6-dione derivatives and uses thereof” (NOVARTIS AG, priority 2019, dated 2023) are described below.

The assay has as its target HiBit-WIZ fusion protein (Homo sapiens, UniProt O95785+Q96SW2). The assay is described as follows: Quantification of WIZ protein levels in HiBit tag fusion protein assay (WIZ HiBit assay in 293T cells). The conditions noted are these: for Dmax / remaining activity at up to 25 µM: HEK-293T; for Dmax / % degradation of WIZ (100-Amax): 100 minus Amax; for Dmax / remaining activity at up to 25 µM / % degradation of WIZ (100-Amax) / WIZ Amax: 293T cells; for Dmax: read-out: % degradation of WIZ (100-Amax); for remaining activity at up to 25 µM / WIZ Amax: DMSO-normalized, curve-fitted percentage of WIZ-HiBit remaining at 25 uM; for remaining activity at up to 25 µM: read-out: WIZ Amax; for DC50: WIZ HiBit assay in 293T cells, 10-point, 5-fold dose response, highest concentration 25 μM, about 18 hours, read-out: WIZ AC50; for % degradation of WIZ (100-Amax): at 25 uM. Further details: Dmax: dose or concentration left out as unconfirmed. The format is cell-based. A general note: HiBiT is a short tag that completes a luciferase, so light tracks the accessible tagged protein.

HiBit-WIZ fusion protein, sequence (O95785 whole entry, the tested form may be a part): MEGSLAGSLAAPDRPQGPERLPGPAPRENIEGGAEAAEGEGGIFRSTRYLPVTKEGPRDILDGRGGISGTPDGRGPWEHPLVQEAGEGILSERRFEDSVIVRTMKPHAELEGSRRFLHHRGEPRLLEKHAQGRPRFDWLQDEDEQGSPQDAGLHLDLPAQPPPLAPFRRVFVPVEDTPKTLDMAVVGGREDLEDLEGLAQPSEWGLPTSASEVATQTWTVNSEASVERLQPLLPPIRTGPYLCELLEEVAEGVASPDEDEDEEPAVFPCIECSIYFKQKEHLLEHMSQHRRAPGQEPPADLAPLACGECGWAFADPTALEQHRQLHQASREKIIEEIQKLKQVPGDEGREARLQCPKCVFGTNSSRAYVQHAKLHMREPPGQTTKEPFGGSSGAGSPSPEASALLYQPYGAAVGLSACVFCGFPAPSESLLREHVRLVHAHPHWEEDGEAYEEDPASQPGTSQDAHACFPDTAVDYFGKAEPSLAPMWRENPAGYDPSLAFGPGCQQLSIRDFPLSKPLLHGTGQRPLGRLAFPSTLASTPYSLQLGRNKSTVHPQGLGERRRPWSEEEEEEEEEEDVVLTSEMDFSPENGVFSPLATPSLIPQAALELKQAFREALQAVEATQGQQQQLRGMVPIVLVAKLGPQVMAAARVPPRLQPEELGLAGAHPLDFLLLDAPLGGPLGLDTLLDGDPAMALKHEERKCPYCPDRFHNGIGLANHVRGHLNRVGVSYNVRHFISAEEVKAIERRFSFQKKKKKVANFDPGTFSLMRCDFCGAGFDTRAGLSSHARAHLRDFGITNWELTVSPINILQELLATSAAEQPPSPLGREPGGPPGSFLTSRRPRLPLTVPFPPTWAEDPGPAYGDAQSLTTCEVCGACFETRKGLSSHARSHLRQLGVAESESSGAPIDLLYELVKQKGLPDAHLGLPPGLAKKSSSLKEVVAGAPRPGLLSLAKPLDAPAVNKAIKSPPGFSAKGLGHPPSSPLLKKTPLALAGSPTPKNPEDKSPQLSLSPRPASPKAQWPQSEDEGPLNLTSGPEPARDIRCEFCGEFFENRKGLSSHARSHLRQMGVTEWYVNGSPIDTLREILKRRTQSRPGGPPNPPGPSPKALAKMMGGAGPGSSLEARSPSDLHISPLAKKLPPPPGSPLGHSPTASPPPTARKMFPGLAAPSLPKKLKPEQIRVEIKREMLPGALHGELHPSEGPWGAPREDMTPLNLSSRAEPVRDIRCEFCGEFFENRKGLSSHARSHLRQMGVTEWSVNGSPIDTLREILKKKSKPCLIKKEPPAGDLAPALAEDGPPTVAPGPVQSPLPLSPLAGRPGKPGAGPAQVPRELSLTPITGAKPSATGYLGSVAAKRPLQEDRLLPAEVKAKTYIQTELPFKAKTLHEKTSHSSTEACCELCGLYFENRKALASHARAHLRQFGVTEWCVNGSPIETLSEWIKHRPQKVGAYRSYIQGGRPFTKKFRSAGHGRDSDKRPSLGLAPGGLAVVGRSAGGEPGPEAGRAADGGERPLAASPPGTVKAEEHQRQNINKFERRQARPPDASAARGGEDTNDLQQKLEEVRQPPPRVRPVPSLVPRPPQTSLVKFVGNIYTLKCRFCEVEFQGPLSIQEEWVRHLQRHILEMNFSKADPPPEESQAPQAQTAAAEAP
HiBit-WIZ fusion protein, sequence (Q96SW2 whole entry, the tested form may be a part): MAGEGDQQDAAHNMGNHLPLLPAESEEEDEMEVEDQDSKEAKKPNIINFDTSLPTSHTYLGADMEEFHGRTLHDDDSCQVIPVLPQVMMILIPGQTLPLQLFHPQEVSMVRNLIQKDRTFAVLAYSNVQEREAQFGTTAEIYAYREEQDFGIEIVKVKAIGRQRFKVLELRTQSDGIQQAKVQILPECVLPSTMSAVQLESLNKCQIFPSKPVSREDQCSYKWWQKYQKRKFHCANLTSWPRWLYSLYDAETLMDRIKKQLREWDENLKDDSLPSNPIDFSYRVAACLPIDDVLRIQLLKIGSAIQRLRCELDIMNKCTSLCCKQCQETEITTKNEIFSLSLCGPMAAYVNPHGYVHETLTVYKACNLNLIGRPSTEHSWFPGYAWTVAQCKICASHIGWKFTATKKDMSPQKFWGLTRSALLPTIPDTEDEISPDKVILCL
HiBit-WIZ fusion protein, sequence (Q16531 whole entry partner, the tested form may be a part): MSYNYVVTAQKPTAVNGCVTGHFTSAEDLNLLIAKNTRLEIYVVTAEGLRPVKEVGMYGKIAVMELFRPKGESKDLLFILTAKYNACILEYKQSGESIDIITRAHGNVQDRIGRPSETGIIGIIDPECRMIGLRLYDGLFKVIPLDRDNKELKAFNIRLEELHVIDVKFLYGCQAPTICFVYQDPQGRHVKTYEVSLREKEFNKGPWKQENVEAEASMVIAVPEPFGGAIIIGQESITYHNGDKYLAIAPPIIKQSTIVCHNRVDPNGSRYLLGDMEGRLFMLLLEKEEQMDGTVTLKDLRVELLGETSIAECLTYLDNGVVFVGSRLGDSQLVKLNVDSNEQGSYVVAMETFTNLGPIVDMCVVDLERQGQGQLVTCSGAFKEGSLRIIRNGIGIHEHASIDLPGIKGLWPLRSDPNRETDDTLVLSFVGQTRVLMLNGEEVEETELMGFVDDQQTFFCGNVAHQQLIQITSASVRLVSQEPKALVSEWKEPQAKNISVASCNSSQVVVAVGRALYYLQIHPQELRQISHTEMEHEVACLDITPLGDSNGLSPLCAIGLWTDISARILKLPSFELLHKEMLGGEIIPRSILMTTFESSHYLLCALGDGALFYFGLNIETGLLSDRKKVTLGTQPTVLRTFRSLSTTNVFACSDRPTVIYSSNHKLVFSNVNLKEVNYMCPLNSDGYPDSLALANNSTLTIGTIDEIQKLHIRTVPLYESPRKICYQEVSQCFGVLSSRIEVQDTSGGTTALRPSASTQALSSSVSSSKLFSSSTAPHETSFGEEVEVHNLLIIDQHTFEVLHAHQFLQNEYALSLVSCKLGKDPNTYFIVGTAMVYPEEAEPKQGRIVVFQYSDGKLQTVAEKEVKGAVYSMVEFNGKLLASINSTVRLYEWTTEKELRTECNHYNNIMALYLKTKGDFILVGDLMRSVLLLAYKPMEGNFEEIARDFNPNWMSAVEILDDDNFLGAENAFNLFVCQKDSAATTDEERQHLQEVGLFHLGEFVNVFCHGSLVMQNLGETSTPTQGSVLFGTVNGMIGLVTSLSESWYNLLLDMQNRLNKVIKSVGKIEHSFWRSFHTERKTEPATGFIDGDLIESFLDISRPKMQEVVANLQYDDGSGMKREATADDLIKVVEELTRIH

For the molecule `CCN1CCCC(C)(C)C1COc1ccc2c(c1)CN(C1CCC(=O)NC1=O)C2=O` (single isomer, unassigned) [Compound I-17, 3-(5-((1-ethyl-3,3-dimethylpiperidin-2-yl)methoxy)-1-oxoisoindolin-2-yl)piperidine-2,6-dione], the Dmax stood at 26.4%, the remaining activity at up to 25 µM stood at 73.6% and the DC50 is greater than 25 µM.

In the case of `CCN1CCCC(C)(C)C1COc1ccc2c(c1)CN(C1CCC(=O)NC1=O)C2=O` (single isomer, unassigned) [Compound I-19, 3-(5-((1-ethyl-3,3-dimethylpiperidin-2-yl)methoxy)-1-oxoisoindolin-2-yl)piperidine-2,6-dione], the “% degradation of WIZ (100-Amax)” value was 34.7%, the “WIZ Amax” value is given as 65.3% and the DC50 was greater than 25 µM.

As to `CCN1CCC[C@H]1C(C)Oc1ccc2c(c1)CN(C1CCC(=O)NC1=O)C2=O` (single isomer, unassigned) [Compound I-25], the “% degradation of WIZ (100-Amax)” value worked out at 46.6%, the “WIZ Amax” value turned out to be 53.4% and the DC50 was greater than 25 µM.

With `CCN1CCC[C@H]1C(C)Oc1ccc2c(c1)CN(C1CCC(=O)NC1=O)C2=O` (single isomer, unassigned) [Compound I-27], the “% degradation of WIZ (100-Amax)” value came out at 15.6%, the “WIZ Amax” value amounted to 84.4% and the DC50 is greater than 25 µM.

`CCC(Oc1ccc2c(c1)CN(C1CCC(=O)NC1=O)C2=O)[C@@H]1CCCN1` (single isomer, unassigned) [Compound I-44]: the “% degradation of WIZ (100-Amax)” value was 10.3%, the remaining activity at up to 25 µM stood at 89.7% and the DC50 is greater than 25 µM.

In the case of `CCC(Oc1ccc2c(c1)CN(C1CCC(=O)NC1=O)C2=O)[C@@H]1CCCN1` (single isomer, unassigned) [Compound I-45], the “% degradation of WIZ (100-Amax)” value was found to be 21.3%, the “WIZ Amax” value is reported as 78.7% and the DC50 is greater than 25 µM.

With `O=C1CCC(N2Cc3cc(OC[C@H]4CCCCN4CC4CCOC4)ccc3C2=O)C(=O)N1` (single isomer, unassigned) [Compound I-211], the Dmax is 53.9%, the remaining activity at up to 25 µM came out at 46.1% and the DC50 is 0.15 µM.

Consider `O=C1CCC(N2Cc3cc(OC[C@H]4CCCCN4CC4CCOC4)ccc3C2=O)C(=O)N1` (single isomer, unassigned) [Compound I-213], for which the “% degradation of WIZ (100-Amax)” value amounted to 55.68%, the “WIZ Amax” value was found to be 44.32% and the DC50 was 0.12 µM.

In the case of `COC1CCC(CN2CCCCC2C(C)Oc2ccc3c(c2)CN(C2CCC(=O)NC2=O)C3=O)CC1` (single isomer, unassigned) [Compound I-219, 3-(5-(1-(1-((4-methoxycyclohexyl)methyl)piperidin-2-yl)ethoxy)-1-oxoisoindolin-2-yl)piperidine-2,6-dione], the Dmax turned out to be 73.9%, the remaining activity at up to 25 µM was 26.1% and the DC50 was 1.4 µM.

In the case of `CCN1CCC(F)(F)CC1COc1ccc2c(c1)CN(C1CCC(=O)NC1=O)C2=O` (single isomer, unassigned) [I-252 (Isomer 1), 3-(5-((1-ethyl-4,4-difluoropiperidin-2-yl)methoxy)-1-oxoisoindolin-2-yl)piperidine-2,6-dione], the “% degradation of WIZ (100-Amax)” value is 58.1%, the “WIZ Amax” value amounted to 41.9% and the DC50 was 0.05 µM.

For `CCN1CCC(F)(F)CC1COc1ccc2c(c1)CN(C1CCC(=O)NC1=O)C2=O` (single isomer, unassigned) [I-252 (Isomer 2), 3-(5-((1-ethyl-4,4-difluoropiperidin-2-yl)methoxy)-1-oxoisoindolin-2-yl)piperidine-2,6-dione], the “% degradation of WIZ (100-Amax)” value was determined as 77.1%, the “WIZ Amax” value amounted to 22.9% and the DC50 was 0.011 µM.

In the case of `CCN1CCC(F)(F)CC1COc1ccc2c(c1)CN(C1CCC(=O)NC1=O)C2=O` (single isomer, unassigned) [I-252 (Isomer 3), 3-(5-((1-ethyl-4,4-difluoropiperidin-2-yl)methoxy)-1-oxoisoindolin-2-yl)piperidine-2,6-dione], the “% degradation of WIZ (100-Amax)” value was 55.1%, the “WIZ Amax” value amounted to 44.9% and the DC50 is 0.045 µM.

As to `CCN1C2CCC(C2)C1COc1ccc2c(c1)CN(C1CCC(=O)NC1=O)C2=O` (single isomer, unassigned) [I-255 (Isomer 1), 3-(5-((endo-2-ethyl-2-azabicyclo[2.2.1]heptan-3-yl)methoxy)-1-oxoisoindolin-2-yl)piperidine-2,6-dione], the “% degradation of WIZ (100-Amax)” value is given as 73.2%, the “WIZ Amax” value came to 26.8% and the DC50 is 0.012 µM.

In the case of `CCN1C2CCC(C2)C1COc1ccc2c(c1)CN(C1CCC(=O)NC1=O)C2=O` (single isomer, unassigned) [I-255 (Isomer 2), 3-(5-((endo-2-ethyl-2-azabicyclo[2.2.1]heptan-3-yl)methoxy)-1-oxoisoindolin-2-yl)piperidine-2,6-dione], the “% degradation of WIZ (100-Amax)” value was determined as 28.8%, the “WIZ Amax” value is listed as 71.2% and the DC50 came out at 0.098 µM.

`CCN1C2CCC(C2)C1COc1ccc2c(c1)CN(C1CCC(=O)NC1=O)C2=O` (single isomer, unassigned) [I-255 (Isomer 3), 3-(5-((endo-2-ethyl-2-azabicyclo[2.2.1]heptan-3-yl)methoxy)-1-oxoisoindolin-2-yl)piperidine-2,6-dione]: the “% degradation of WIZ (100-Amax)” value is 26.5%, the “WIZ Amax” value is given as 73.5% and the DC50 was 0.36 µM.

In the case of `CCN1C2CCC(C2)C1COc1ccc2c(c1)CN(C1CCC(=O)NC1=O)C2=O` (single isomer, unassigned) [I-255 (Isomer 4), 3-(5-((endo-2-ethyl-2-azabicyclo[2.2.1]heptan-3-yl)methoxy)-1-oxoisoindolin-2-yl)piperidine-2,6-dione], the “% degradation of WIZ (100-Amax)” value is reported as 73.0%, the “WIZ Amax” value amounted to 27.0% and the DC50 came to 0.034 µM.

In the case of `COc1ccc(CN2CCCC[C@H]2COc2ccc3c(c2)CN(C2CCC(=O)NC2=O)C3=O)cc1F` (stereo partly drawn) [Compound I-50a], the Dmax is 52.2%, the remaining activity at up to 25 µM came out at 47.8% and the DC50 is greater than 25 µM.

Take `O=C1CCC(N2Cc3cc(OC[C@@H]4CCCCN4Cc4cccc(N5CCCC5)c4)ccc3C2=O)C(=O)N1` (stereo partly drawn) [Compound I-50aa]: the Dmax turned out to be 95.1%, the remaining activity at up to 25 µM was determined as 4.9% and the DC50 came to 0.412 µM.

In the case of `O=C1CCC(N2Cc3cc(OC[C@@H]4CCCCN4Cc4ccccc4OCCN4CCOCC4)ccc3C2=O)C(=O)N1` (stereo partly drawn) [Compound I-50ab], the Dmax stood at 50.8%, the remaining activity at up to 25 µM came out at 49.2% and the DC50 is greater than 25 µM.

Turning to `Cc1nc[nH]c1CN1CCCC[C@H]1COc1ccc2c(c1)CN(C1CCC(=O)NC1=O)C2=O` (stereo partly drawn) [Compound I-50ac], the Dmax was 92.3%, the remaining activity at up to 25 µM is 7.7% and the DC50 was 0.578 µM.

Turning to `COc1cc2[nH]nc(CN3CCCC[C@H]3COc3ccc4c(c3)CN(C3CCC(=O)NC3=O)C4=O)c2cc1OCc1ccccc1` (stereo partly drawn) [Compound I-50ae], the Dmax amounted to 53.1%, the remaining activity at up to 25 µM amounted to 46.9% and the DC50 was greater than 25 µM.

`O=C1CCC(N2Cc3cc(OC[C@@H]4CCCCN4Cc4n[nH]c5ccc(Oc6cccnc6)cc45)ccc3C2=O)C(=O)N1` (stereo partly drawn) [Compound I-50af]: the Dmax turned out to be 57.2%, the remaining activity at up to 25 µM was determined as 42.8% and the DC50 was 21.1 µM.

With `Cn1cncc1CN1CCCC[C@H]1COc1ccc2c(c1)CN(C1CCC(=O)NC1=O)C2=O` (stereo partly drawn) [Compound I-50ag], the Dmax turned out to be 62.8%, the remaining activity at up to 25 µM was 37.2% and the DC50 stood at 15.2 µM.

Regarding `Cn1nnc2cc(CN3CCCC[C@H]3COc3ccc4c(c3)CN(C3CCC(=O)NC3=O)C4=O)ccc21` (stereo partly drawn) [Compound I-50ah], the Dmax worked out at 44.4%, the remaining activity at up to 25 µM was 55.6% and the DC50 is greater than 25 µM.

With `O=C1CCC(N2Cc3cc(OC[C@@H]4CCCCN4Cc4ccc(-n5nccn5)cc4)ccc3C2=O)C(=O)N1` (stereo partly drawn) [Compound I-50ai], the Dmax is 77.8%, the remaining activity at up to 25 µM was found to be 22.2% and the DC50 came to 0.591 µM.

For `O=C1CCC(N2Cc3cc(OC[C@@H]4CCCCN4CC4CCN(Cc5ccccc5)CC4)ccc3C2=O)C(=O)N1` (stereo partly drawn) [Compound I-50aj], the Dmax is 99%, the remaining activity at up to 25 µM came out at 1% and the DC50 was found to be 0.016 µM.

`O=C1CCC(N2Cc3cc(OC[C@@H]4CCCCN4Cc4ccc(N5CCCC5)nc4)ccc3C2=O)C(=O)N1` (stereo partly drawn) [Compound I-50ak]: the Dmax turned out to be 81.3%, the remaining activity at up to 25 µM was found to be 18.7% and the DC50 is 0.347 µM.

With `O=C1CCC(N2Cc3cc(OC[C@@H]4CCCCN4Cc4c[nH]cn4)ccc3C2=O)C(=O)N1` (stereo partly drawn) [Compound I-50al], the Dmax is 54.1%, the remaining activity at up to 25 µM was 45.9% and the DC50 was greater than 25 µM.

In the case of `O=C1CCC(N2Cc3cc(OC[C@@H]4CCCCN4Cc4ccccc4OCC(=O)N4CCCCC4)ccc3C2=O)C(=O)N1` (stereo partly drawn) [Compound I-50am], the Dmax was found to be 40%, the remaining activity at up to 25 µM came to 60% and the DC50 was greater than 25 µM.

With `O=C1CCC(N2Cc3cc(OC[C@H]4CCCCN4Cc4cn[nH]c4)ccc3C2=O)C(=O)N1` (stereo partly drawn) [Compound I-50an], the Dmax was 82.2%, the remaining activity at up to 25 µM amounted to 17.8% and the DC50 is 1.71 µM.

Regarding `Cc1noc(C)c1CN1CCCC[C@H]1COc1ccc2c(c1)CN(C1CCC(=O)NC1=O)C2=O` (stereo partly drawn) [Compound I-50ao], the Dmax was found to be 96.8%, the remaining activity at up to 25 µM came to 3.2% and the DC50 stood at 0.089 µM.
